Values quoted from earlier work in patent US6797704B2, “Systemic delivery of compounds through non-invasive bladder administration” (The Johns Hopkins University, priority 2000, dated 2004).

B1: recombinant murine interleukin-12: cytokine co-injected with naked DNA in a literature lung tumor study (protein, UniProt P43431 23-215; P43432 23-335, looked up)
Interleukin-12 subunit alpha: RVIPVSGPARCLSQSRNLLKTTDDMVKTAREKLKHYSCTAEDIDHEDITRDQTSTLKTCLPLELHKNESCLATRETSSTTRGSCLPPQKTSLMMTLCLGSIYEDLKMYQTEFQAINAALQNHNHQQIILDKGMLVAIDELMQSLNHNGETLRQKPPVGEADPYRVKMKLCILLHAFSTRVVTINRVMGYLSSA
Interleukin-12 subunit beta: MWELEKDVYVVEVDWTPDAPGETVNLTCDTPEEDDITWTSDQRHGVIGSGKTLTITVKEFLDAGQYTCHKGGETLSHSHLLLHKKENGIWSTEILKNFKNKTFLKCEAPNYSGRFTCSWLVQRNMDLKFNIKSSSSSPDSRAVTCGMASLSAEKVTLDQRDYEKYSVSCQEDVTCPTAEETLPIELALEARQQNKYENYSTSFFIRDIIKPDPPKNLQMKPLKNSQVEVSWEYPDSWSTPHSYFSLKFFVRIQRKKEKMKETEEGCNQKGAFLVEKTSTEVQCKGGNVCVQAQDRYYNSSCSKWACVPCRVRS

How the values were obtained:
[1] = men
murine lung tumors = conditions: co-injection with naked DNA; from more than 250

Row | Molecule | systemic absorption following intravesical administration [1] | number of primary lung metastases (murine lung tumors)
1 | COc1cccc2c1C(=O)c1c(O)c3c(c(O)c1C2=O)C[C@@](O)(C(=O)CO)C[C@@H]3O[C@H]1C[C@H](N)[C@H](O)[C@H](C)O1 [doxorubicin] | minimal | –
2 | B1 | – | around 10
